ChEMBL document CHEMBL5465560, “Selectivity Literature for EUbOPEN Chemogenomic Library” (2024)
Blank lines part the entries; values can stand above or below the compound they belong to.

Key:
[1] = target: Bromodomain-containing protein 4 (Homo sapiens, UniProt O60885)
[2] = target: Receptor-type tyrosine-protein kinase FLT3 (Homo sapiens) (UniProt P36888); experiment: Selectivity interaction (KinomeScan (DiscoverX)) EUB0001049a FLT3; settings: at 1 µM
[3] = target: 5'-AMP-activated protein kinase catalytic subunit alpha-1 (Homo sapiens, UniProt Q13131); experiment: Selectivity interaction (KinomeScan (DiscoverX)) EUB0001049a PRKAA1; settings: at 1 µM
[4] = target: T1, Serine/threonine-protein kinase 3 (Homo sapiens) (UniProt Q13188); experiment: Selectivity interaction (KinomeScan (DiscoverX)) EUB0001049a STK3; settings: at 1 µM
T1 sequence (whole entry): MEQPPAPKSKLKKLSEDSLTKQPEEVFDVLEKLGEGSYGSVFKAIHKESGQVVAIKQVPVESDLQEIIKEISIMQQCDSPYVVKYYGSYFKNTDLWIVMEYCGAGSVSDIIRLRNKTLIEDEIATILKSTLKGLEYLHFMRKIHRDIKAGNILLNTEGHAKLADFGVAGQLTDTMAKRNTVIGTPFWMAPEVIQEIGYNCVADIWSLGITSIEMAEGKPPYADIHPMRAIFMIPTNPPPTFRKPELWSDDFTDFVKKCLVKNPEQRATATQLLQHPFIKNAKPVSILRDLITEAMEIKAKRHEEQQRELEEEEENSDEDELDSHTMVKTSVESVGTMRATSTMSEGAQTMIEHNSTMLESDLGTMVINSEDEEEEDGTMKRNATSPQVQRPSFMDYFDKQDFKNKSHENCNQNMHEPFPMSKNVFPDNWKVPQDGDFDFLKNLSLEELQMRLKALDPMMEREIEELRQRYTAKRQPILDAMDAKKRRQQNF

[5] = target: T2, Phosphorylase b kinase gamma catalytic chain, liver/testis isoform (Homo sapiens) (UniProt P15735); experiment: Selectivity interaction (Ambit KINOMEscan and KiNATiv profiling in Jurkat cells) EUB0000090b PHKG2; format: cell-based; settings: at 1 µM
T2 sequence (whole entry): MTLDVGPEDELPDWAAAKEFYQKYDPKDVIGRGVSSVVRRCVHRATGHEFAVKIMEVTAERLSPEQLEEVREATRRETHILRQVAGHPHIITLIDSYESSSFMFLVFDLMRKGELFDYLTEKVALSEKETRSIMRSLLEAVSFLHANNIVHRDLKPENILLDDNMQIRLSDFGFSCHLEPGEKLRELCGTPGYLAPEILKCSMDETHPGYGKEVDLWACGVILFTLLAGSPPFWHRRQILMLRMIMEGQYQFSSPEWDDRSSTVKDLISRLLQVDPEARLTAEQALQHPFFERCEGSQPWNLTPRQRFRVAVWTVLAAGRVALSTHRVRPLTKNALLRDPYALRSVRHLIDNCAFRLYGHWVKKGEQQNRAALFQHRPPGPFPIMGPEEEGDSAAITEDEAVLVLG

Activated CDC42 kinase 1 = Activated CDC42 kinase 1 (Homo sapiens, UniProt Q07912); experiment: Selectivity interaction (ActivX KiNativ screen (kinase selectivity in THP-1 cell lysates)) EUB0000639a TNK2; format: subcellular; settings: lysate
Chain of Activated CDC42 kinase 1 (Q07912 whole entry, looked up): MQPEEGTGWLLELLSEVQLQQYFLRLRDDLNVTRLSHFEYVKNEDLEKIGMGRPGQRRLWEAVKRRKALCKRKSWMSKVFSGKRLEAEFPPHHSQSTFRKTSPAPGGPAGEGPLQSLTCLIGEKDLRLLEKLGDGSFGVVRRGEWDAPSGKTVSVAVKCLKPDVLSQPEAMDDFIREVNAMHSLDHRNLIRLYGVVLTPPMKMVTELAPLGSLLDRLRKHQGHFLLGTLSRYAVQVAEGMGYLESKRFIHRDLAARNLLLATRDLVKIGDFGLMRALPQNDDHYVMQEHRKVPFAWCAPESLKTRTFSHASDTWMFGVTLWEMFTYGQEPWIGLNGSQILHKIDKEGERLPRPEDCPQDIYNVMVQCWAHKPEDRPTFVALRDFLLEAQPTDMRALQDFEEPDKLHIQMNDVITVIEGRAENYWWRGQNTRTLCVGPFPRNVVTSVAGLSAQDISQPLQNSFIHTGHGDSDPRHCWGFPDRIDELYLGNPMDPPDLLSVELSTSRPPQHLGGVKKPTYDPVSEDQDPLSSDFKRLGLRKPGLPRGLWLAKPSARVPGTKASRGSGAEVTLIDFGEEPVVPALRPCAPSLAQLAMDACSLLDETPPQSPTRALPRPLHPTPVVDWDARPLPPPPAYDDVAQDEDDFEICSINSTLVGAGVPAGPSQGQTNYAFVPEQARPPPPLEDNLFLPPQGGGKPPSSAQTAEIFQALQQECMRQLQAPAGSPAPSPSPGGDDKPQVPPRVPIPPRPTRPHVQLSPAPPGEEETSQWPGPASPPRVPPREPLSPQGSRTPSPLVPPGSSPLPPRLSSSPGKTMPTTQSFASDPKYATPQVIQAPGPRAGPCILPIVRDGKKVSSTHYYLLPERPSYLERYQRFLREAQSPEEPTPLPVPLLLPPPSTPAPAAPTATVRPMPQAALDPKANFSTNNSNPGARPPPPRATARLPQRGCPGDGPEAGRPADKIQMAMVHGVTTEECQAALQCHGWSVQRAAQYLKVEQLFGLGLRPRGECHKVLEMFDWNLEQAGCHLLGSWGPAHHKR

[6] = target: Tyrosine-protein kinase Blk (Homo sapiens) (UniProt P51451); experiment: Selectivity interaction (Kinase panel (Invitrogen)) EUB0000639a BLK; settings: at 200 nM
[7] = target: MAP kinase-activated protein kinase 3 (Homo sapiens) (UniProt Q16644); experiment: Selectivity interaction (ActivX KiNativ screen (kinase selectivity in THP-1 cell lysates)) EUB0000639a MAPKAPK3; format: subcellular; settings: lysate
Chain of MAP kinase-activated protein kinase 3 (Homo sapiens) (Q16644 whole entry, looked up): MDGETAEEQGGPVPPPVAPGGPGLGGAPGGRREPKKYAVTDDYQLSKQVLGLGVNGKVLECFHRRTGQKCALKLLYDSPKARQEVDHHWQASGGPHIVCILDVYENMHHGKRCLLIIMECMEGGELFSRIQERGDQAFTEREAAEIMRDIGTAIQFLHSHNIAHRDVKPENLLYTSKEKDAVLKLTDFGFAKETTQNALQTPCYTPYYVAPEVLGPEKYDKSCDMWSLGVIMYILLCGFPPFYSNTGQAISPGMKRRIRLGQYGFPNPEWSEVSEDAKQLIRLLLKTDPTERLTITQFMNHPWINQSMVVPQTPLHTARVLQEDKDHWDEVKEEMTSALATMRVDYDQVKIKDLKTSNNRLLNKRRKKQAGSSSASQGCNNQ

[8] = target: T3, Protein arginine N-methyltransferase 5 (Homo sapiens, UniProt O14744); settings: at 1 µM
T3 sequence (O14744 whole entry): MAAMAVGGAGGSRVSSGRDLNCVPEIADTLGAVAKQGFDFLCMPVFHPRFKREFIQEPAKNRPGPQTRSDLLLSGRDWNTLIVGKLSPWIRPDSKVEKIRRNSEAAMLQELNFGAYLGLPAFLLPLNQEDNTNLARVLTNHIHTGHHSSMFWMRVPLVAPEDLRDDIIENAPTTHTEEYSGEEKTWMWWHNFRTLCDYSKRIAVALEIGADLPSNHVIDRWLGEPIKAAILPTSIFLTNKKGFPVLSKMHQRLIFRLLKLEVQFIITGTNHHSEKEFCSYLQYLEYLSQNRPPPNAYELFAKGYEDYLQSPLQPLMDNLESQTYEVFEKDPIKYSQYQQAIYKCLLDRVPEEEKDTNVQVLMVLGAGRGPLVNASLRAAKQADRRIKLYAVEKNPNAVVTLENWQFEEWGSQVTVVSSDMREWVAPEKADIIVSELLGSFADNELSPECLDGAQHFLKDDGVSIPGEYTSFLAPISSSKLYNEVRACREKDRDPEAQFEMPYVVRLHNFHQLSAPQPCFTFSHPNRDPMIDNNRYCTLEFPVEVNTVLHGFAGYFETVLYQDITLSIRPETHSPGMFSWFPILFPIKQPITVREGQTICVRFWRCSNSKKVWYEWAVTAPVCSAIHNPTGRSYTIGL

[9] = target: Cell division cycle 7-related protein kinase (Homo sapiens, UniProt O00311); experiment: Selectivity interaction (LanthaScreen Eu Kinase Binding Assay) EUB0001632a CDC7; settings: at 10 µM
Chain of Cell division cycle 7-related protein kinase (O00311 whole entry, looked up): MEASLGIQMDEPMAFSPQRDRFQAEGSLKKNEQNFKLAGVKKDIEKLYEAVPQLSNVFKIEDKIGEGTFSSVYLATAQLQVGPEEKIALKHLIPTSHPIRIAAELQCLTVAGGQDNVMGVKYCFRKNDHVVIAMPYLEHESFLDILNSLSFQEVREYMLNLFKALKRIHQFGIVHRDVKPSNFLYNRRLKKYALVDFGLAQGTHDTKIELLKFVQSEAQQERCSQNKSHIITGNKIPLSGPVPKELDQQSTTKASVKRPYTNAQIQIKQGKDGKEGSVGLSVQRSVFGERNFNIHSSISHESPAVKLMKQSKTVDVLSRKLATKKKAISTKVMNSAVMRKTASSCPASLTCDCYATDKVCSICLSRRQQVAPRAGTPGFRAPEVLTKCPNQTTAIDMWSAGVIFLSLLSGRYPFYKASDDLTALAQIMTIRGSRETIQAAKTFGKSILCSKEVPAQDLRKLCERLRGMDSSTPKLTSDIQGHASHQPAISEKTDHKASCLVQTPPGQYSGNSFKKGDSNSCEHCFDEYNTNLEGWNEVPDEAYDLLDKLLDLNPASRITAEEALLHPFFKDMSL

[10] = target: T4, Membrane-associated tyrosine- and threonine-specific cdc2-inhibitory kinase (Homo sapiens) (UniProt Q99640); experiment: Selectivity interaction (KinomeScan (DiscoverX)) EUB0000595a PKMYT1; settings: at 10 µM
T4 sequence (whole entry): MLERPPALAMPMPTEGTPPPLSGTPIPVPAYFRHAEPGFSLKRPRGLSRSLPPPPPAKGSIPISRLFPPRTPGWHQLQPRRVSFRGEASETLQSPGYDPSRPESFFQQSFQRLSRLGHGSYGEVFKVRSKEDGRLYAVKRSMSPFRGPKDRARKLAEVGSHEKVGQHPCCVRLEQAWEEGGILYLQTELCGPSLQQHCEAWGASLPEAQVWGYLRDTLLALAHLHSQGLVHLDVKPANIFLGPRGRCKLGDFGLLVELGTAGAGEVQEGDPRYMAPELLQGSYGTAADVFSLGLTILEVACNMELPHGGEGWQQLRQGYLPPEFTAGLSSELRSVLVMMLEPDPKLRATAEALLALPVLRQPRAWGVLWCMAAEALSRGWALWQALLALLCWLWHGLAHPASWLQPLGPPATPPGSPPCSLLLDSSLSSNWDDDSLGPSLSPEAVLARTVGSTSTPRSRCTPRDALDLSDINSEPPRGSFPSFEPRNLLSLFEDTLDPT

[11] = target: Fibroblast growth factor receptor 2 (Homo sapiens) (UniProt P21802); experiment: Selectivity interaction (Upstate Kinase Profiler service (Millipore)) EUB0000056c FGFR2; settings: at 1 µM
[12] = target: Calcium/calmodulin-dependent protein kinase type 1G (Homo sapiens) (UniProt Q96NX5); experiment: Selectivity interaction (KinomeScan (DiscoverX)) EUB0000655a CAMK1G; settings: at 10 µM
Chain of Calcium/calmodulin-dependent protein kinase type 1G (Homo sapiens) (Q96NX5 whole entry): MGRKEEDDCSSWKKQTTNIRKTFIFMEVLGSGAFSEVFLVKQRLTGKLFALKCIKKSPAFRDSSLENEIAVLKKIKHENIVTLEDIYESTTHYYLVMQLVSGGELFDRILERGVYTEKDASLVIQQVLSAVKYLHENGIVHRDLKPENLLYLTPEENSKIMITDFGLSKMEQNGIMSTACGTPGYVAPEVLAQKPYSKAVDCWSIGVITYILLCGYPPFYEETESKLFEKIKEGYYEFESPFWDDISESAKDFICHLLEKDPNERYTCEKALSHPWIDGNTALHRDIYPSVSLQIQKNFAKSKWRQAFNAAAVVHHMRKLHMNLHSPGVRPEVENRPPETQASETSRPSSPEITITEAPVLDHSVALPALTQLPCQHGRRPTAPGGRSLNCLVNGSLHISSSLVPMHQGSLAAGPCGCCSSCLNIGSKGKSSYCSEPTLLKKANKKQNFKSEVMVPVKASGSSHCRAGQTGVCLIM

[13] = target: Tyrosine-protein kinase ABL2 (Homo sapiens, UniProt P42684); experiment: Selectivity interaction (ActivX KiNativ screen (ex vivo kinase selectivity in human PBMCs)) EUB0001619a ABL2; format: cell-based; settings: PBMC, at 1 µM
[14] = target: RAC-beta serine/threonine-protein kinase (Homo sapiens) (UniProt P31751); experiment: Selectivity interaction (KinomeScan (DiscoverX)) EUB0000618a AKT2; settings: at 10 µM
Chain of RAC-beta serine/threonine-protein kinase (Homo sapiens) (P31751 whole entry): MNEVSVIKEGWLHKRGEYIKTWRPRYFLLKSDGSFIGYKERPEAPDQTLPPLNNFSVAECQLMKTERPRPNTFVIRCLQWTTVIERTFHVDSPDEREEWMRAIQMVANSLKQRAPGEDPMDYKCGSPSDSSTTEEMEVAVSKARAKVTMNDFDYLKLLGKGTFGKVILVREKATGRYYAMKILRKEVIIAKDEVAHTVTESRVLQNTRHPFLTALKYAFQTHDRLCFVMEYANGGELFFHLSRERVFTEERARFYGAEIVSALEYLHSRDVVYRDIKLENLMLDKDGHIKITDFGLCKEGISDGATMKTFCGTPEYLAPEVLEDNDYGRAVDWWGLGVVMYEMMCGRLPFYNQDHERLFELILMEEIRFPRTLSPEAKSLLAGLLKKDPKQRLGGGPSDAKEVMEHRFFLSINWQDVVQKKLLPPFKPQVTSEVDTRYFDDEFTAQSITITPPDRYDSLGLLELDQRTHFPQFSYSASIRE

[15] = target: Tyrosine-protein kinase Fyn (Homo sapiens) (UniProt P06241); experiment: Selectivity interaction (KinomeScan (DiscoverX)) EUB0000607a FYN; settings: at 10 µM
[16] = target: T3, Protein arginine N-methyltransferase 5; experiment: Selectivity interaction (Scintillation proximity assays) EUB0000255b PRMT5
[17] = target: Protein kinase C theta type (Homo sapiens, UniProt Q04759); experiment: Selectivity interaction (KinomeScan (DiscoverX)) EUB0000666a PRKCQ; settings: at 10 µM

Chain of Receptor-type tyrosine-protein kinase FLT3 (Homo sapiens) (P36888 whole entry): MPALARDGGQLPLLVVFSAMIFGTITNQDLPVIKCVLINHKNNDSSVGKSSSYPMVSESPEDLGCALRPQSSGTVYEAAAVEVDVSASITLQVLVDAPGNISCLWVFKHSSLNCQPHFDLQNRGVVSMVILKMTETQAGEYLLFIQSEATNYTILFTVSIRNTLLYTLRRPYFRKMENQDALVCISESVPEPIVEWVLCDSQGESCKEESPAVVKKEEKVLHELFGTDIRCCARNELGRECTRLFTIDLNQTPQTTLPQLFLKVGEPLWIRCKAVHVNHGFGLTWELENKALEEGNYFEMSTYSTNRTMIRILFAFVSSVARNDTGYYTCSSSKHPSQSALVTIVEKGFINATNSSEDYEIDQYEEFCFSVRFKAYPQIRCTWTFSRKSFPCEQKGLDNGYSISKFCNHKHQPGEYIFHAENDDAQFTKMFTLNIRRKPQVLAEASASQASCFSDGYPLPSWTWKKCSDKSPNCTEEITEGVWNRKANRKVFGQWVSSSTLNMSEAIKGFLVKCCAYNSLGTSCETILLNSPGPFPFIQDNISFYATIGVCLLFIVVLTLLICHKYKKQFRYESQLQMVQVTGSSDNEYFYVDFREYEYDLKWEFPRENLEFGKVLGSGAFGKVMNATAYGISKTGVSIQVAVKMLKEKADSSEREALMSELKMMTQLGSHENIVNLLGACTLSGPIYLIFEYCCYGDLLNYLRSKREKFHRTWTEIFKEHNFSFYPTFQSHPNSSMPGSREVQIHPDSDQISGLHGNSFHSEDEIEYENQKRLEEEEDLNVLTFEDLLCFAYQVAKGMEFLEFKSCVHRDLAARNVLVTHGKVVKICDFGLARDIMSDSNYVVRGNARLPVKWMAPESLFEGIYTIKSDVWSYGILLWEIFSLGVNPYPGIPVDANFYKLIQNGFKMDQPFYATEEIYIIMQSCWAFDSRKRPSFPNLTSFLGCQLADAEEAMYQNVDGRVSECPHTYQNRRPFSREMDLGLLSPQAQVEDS

- Kdapp [1]: 1920 nM
Compound: CC(=O)Nc1cccc(-n2c(=O)n(C3CC3)c(=O)c3c(Nc4ccc(I)cc4F)n(C)c(=O)c(C)c32)c1

Compound: COc1cc(Nc2nc(C)cc(-c3cnn4nc(OC)ccc34)n2)cc(C(F)(F)F)c1
- % of control [2]: 64%
- % of control [3]: 87%
- % of control [4]: 100%

Compound: CN(C)C/C=C/C(=O)Nc1ccc(C(=O)N2CCCC(Nc3ncc(Cl)c(-c4c[nH]c5ccccc45)n3)C2)cc1 (stereo unspecified)
- % of control [5]: 94%

- % of inhibition (Activated CDC42 kinase 1; at 0.01 µM): 1.7%
- % of inhibition (Activated CDC42 kinase 1; at 0.04 µM): -15.5%
- % of inhibition (Activated CDC42 kinase 1; at 0.2 µM): -11.3%
- % of inhibition (Activated CDC42 kinase 1; at 1 µM): -19.1%
- % of inhibition (Activated CDC42 kinase 1; at 5 µM): -20.6%
- % of inhibition [6]: 4.04%
- % of inhibition ([7]; at 0.01 µM): 3.3%
- % of inhibition ([7]; at 0.04 µM): 10.6%
- % of inhibition ([7]; at 0.2 µM): 6.9%
- % of inhibition ([7]; at 1 µM): -0.7%
- % of inhibition ([7]; at 5 µM): 4.9%
Compound: CC[C@@H]1[C@H](F)C(=O)N[C@@H]1COc1nccc2cc(C(N)=O)c(OC)cc12 [ZIMLOVISERTIB]

- % activity [8]: > 90%
Compound: CNCCN1CCC(c2cc(CN(C)C(=O)c3cccc(Oc4ccccc4)c3)ccn2)CC1

- % of inhibition [9]: -5.05%
Compound: Cn1cc(-n2cnc3c(NCc4nc5cc(Cl)c(Cl)cc5[nH]4)nc(N4CCOCC4)nc32)cn1

Compound: COCC(=O)NC/C=C/c1ccc2ncnc(Nc3ccc(Oc4ccc(C)nc4)c(C)c3)c2c1 [CP-724714]
- % of control [10]: 100%

- % of inhibition [11]: -10%
Compound: Cc1ccc(-c2ccc3c(ccc4sc5c(c43)NC[C@@H](C)NC5=O)n2)cn1

Compound: CN(C)CCOc1ccc(-c2nc(-c3ccncc3)c(-c3ccc4c(c3)CC/C4=N\O)[nH]2)cc1
- % of control [12]: 100%

Compound: N#Cc1cccc(-c2c[nH]c3ncnc(N4CCOCC4)c23)c1
- % of inhibition [13]: -53%

Compound: O[C@H]1CC[C@H](Nc2ncc3nc(Nc4c(F)cc(F)cc4F)n([C@H]4CCOC4)c3n2)CC1
- % of control [14]: 100%

Compound: CNC(=O)Nc1ccc(-c2nc(N3CC4CCC(C3)O4)c3cnn(C4CCC5(CC4)OCCO5)c3n2)cc1
- % of control [15]: 70%

Compound: COCCN1CCC(c2cc(CN(C)C(=O)c3cccc(Oc4ccccc4)c3)ccn2)CC1
- IC50 [16]: > 10 µM

Compound: O=C(NOC[C@H](O)CO)c1ccc(F)c(F)c1Nc1ccc(I)cc1F
- % of control [17]: 100%
